Experimental data from patent EP4289427A1, “DIHYDRO[1,8]NAPHTHYRIDIN-7-ONE AND PYRIDO[3,2-B][1,4]OXAZIN-3-ONE FOR USE IN TREATING CANCER, AND METASTASES IN PARTICULAR” (Anagenesis Biotechnologies, priority 2022, dated 2023).

Key:
RD cells = assay: Cytotoxicity assay (CellTiter-Glo 2.0) on RD cells; format: cell-based, Human; conditions: for IC50: Homo sapiens
Method: (§1) Cytotoxicity assays consist in treating cells with compounds and assessing remaining viability after a defined incubation time, depending on the cell line. CellTiter-Glo® 2.0 reagent allows viability measurement by quantification of ATP present, which is an indicator of metabolically active cells.
(§2) The cancer cell lines were cultivated in their respective growth medium (see tables 6a and 6b). On day 0 of the cytotoxicity assay, the cells were harvested and seeded into a 384-well plate at a defined density in their respective growth medium (see tables 6a and 6b). Compounds to be tested were then added onto the cells and incubated for a defined duration (see tables 6a and 6b). Following incubation, CellTiter-Glo® 2.0 reagent (cat.no. G9241 from Promega) was added into the wells (vol/vol, according to the manufacturer's recommendations), plates were gently shaken and incubated for 10 minutes in the dark at room temperature. Bioluminescence was then measured with a multimode plate reader (Victor Nivo from Perkin Elmer), and cell viability and relative IC50 were determined. Table 6a: Cancer cell characteristics, culture and cytotoxic assay conditions

4T1 cells = assay: Cytotoxicity assay (CellTiter-Glo 2.0) on 4T1 cells; format: cell-based, Mouse; conditions: incubation 2 days; for IC50: Mus musculus, 48 h
Method: as §1, §2

MDA-MB-231 cells = assay: Cytotoxicity assay (CellTiter-Glo 2.0) on MDA-MB-231 cells; format: cell-based, Human; conditions: incubation 3 days; for IC50: Homo sapiens, 72 h
Method: as §1, §2

EoL-1 cells = assay: Cytotoxicity assay (CellTiter-Glo 2.0) on EoL-1 cells; format: cell-based, Human; conditions: incubation 1 day; for IC50: Homo sapiens, EOL1, 24 h
Method: as §1, §2

HUVECs = assay: Tube formation assay (anti-angiogenic activity); format: cell-based, human; conditions: for IC50: Homo sapiens, HUVEC
Description: Angiogenesis is a phenomenon that includes different processes, such as endothelial cell proliferation, migration and differentiation that lead to the formation of new blood vessels. Tube formation assay is a standard in vitro test to assess angiogenesis: briefly, human Umbilical Vein Endothelial cells (hereafter "HUVECs") cultivated on a gelled basement matrix spontaneously proliferate, migrate and differentiate to form tube-like structures, that appear elongated and that connect to each other to form a network.
HUVECs were cultivated in Endothelial Cell Growth Medium (cat.no. C-22010 from Promocell) supplemented with 1% PenStrep (hereafter "HUVEC medium"). On day 0, HUVECs were harvested and transferred into a 384-well plate precoated with 10 µl/well of Cultrex UltiMatrix Reduced Growth factor basement membrane (cat.no. BME001-10 from BioTechne), according to the manufacturer's instructions, at a density of 5000 cells/well in HUVEC medium. Compounds to be tested were then added onto the cells and incubated for 16 to 18 hours at 37°C. After this incubation period, the cells were stained with calcein-AM (cat.no. 10462052 from Fisher Scientific) and pictures were acquired using a confocal fluorescent microscope (IXM from Molecular Devices). Tube formation was measured with MetaXpress® Software.

Structure (SMILES) | Cytotoxicity (RD cells; 2 day-treatment) | Cytotoxicity (RD cells; 4 day-treatment) | IC50 (RD cells; 48 h, 2 day-treatment) | IC50 (RD cells; 96 h, 4 day-treatment) | IC50 (4T1 cells) | Cytotoxicity (4T1 cells) | IC50 (MDA-MB-231 cells) | Cytotoxicity (MDA-MB-231 cells) | IC50 (EoL-1 cells) | Cytotoxicity (EoL-1 cells) | IC50 (HUVECs; incubation 16 to 18 hours) | Angiogenesis inhibition (HUVECs; incubation 16 to 18 hours) | also measured
CNC(=O)c1cc(Oc2ccc(NC(=O)Nc3ccc(Cl)c(C(F)(F)F)c3)cc2)ccn1 [Sorafenib, reference compound] | – | – | – | – | – | – | – | – | – | – | – | – | Cytotoxicity (RD cells; 2 day-treatment, commercial kinase inhibitors): ++ (50 % ≤ cytotoxicity < 85 %); Cytotoxicity (RD cells; 4 day-treatment, commercial kinase inhibitors): ++ (50 % ≤ cytotoxicity < 85 %); IC50 (RD cells; 48 h, 2 day-treatment, commercial kinase inhibitors): ≥ 10000 nM; IC50 (RD cells; 96 h, 4 day-treatment, commercial kinase inhibitors): 5000 to 10000 nM; IC50 (4T1 cells; commercial kinase inhibitors): 5000 to 10000 nM; Cytotoxicity (4T1 cells; commercial kinase inhibitors): + (20 % ≤ cytotoxicity < 50 %); IC50 (MDA-MB-231 cells; commercial kinase inhibitors): 5000 to 10000 nM; Cytotoxicity (MDA-MB-231 cells; commercial kinase inhibitors): +++ (cytotoxicity ≥ 85 %); IC50 (EoL-1 cells; commercial kinase inhibitors): < 1 nM; Cytotoxicity (EoL-1 cells; commercial kinase inhibitors): +++ (cytotoxicity ≥ 85%); IC50 (HUVECs; commercial kinase inhibitors): < 100 nM; Angiogenesis inhibition (HUVECs; commercial kinase inhibitors): + (50% > angiogenesis inhibition ≥ 20%)
CC(C)(C)c1cc(NC(=O)Nc2ccc(Oc3ccnc4c3CCC(=O)N4)cc2C(F)(F)F)n(-c2cccnc2)n1 [Compound 030, 1-[5-tert-butyl-2-(3-pyridyl)pyrazol-3-yl]-3-[4-[(7-oxo-6,8-dihydro-5H-1,8-naphthyridin-4-yl)oxy]-2-(trifluoromethyl)phenyl]urea] | ++ (50% ≤ cytotoxicity < 85%) | ++ (50% ≤ cytotoxicity < 85%) | 5000 to 10000 nM | 5000 to 10000 nM | 1000 to 5000 nM | +++ (cytotoxicity ≥ 85%) | 1000 to 5000 nM | ++ (50% ≤ cytotoxicity < 85%) | 10 to 100 nM | ++ (50% ≤ cytotoxicity < 85%) | < 100 nM | +++ (angiogenesis inhibition ≥ 80%) | –
CSc1cc(Oc2ccnc3c2CCC(=O)N3)ccc1NC(=O)Nc1cc(C(C)(C)C)nn1-c1ccccc1 [Compound 001, 1-(3-(tert-butyl)-1-phenyl-1H-pyrazol-5-yl)-3-(2-(methylthio)-4-((7-oxo-5,6,7,8-tetrahydro-1,8-naphthyridin-4-yl)oxy)phenyl)urea] | + (20 % ≤ cytotoxicity < 50%) | ++ (50% ≤ cytotoxicity < 85%) | 1000 to 5000 nM | 1000 to 5000 nM | 1000 to 5000 nM | +++ (cytotoxicity ≥ 85%) | 1000 to 5000 nM | ++ (50% ≤ cytotoxicity < 85%) | 10 to 100 nM | +++ (cytotoxicity ≥ 85%) | < 100 nM | +++ (angiogenesis inhibition ≥ 80%) | –
CSc1cc(Oc2ccnc3c2OCC(=O)N3)ccc1NC(=O)Nc1cc(C(C)(C)C)nn1-c1ccc(CN2CCOCC2)cc1 [Compound 038, 1-[5-tert-butyl-2-[4-(morpholinomethyl)phenyl]pyrazol-3-yl]-3-[2-methylsulfanyl-4-[(3-oxo-4H-pyrido[3,2-b][1,4]oxazin-8-yl)oxy]phenyl]urea] | ++ (50% ≤ cytotoxicity < 85%) | ++ (50% ≤ cytotoxicity < 85%) | 1000 to 5000 nM | 1000 to 5000 nM | 1000 to 5000 nM | +++ (cytotoxicity ≥ 85%) | 1000 to 5000 nM | ++ (50% ≤ cytotoxicity < 85%) | 1 to 10 nM | ++ (50% ≤ cytotoxicity < 85%) | 100 to 500 nM | +++ (angiogenesis inhibition ≥ 80%) | –
CC(C)(C)c1cc(NC(=O)Nc2ccc(Oc3ccnc4c3OCC(=O)N4)cc2C(F)(F)F)n(-c2cccc(F)c2)n1 [Compound 014, 1-[5-tert-butyl-2-(3-fluorophenyl)pyrazol-3-yl]-3-[4-[(3-oxo-4H-pyrido[3,2-b][1,4]oxazin-8-yl)oxy]-2-(trifluoromethyl)phenyl]urea] | + (20 % ≤ cytotoxicity < 50%) | + (20 % ≤ cytotoxicity < 50%) | 5000 to 10000 nM | ≥ 10000 nM | 1000 to 5000 nM | +++ (cytotoxicity ≥ 85%) | 1000 to 5000 nM | + (20 % ≤ cytotoxicity < 50%) | 10 to 100 nM | ++ (50% ≤ cytotoxicity < 85%) | 100 to 500 nM | +++ (angiogenesis inhibition ≥ 80%) | –
CC(C)(C)c1cc(NC(=O)Nc2ccc(Oc3ccnc4c3CCC(=O)N4)cc2C(F)(F)F)no1 [Compound 024, 1-(5-tert-butylisoxazol-3-yl)-3-[4-[(7-oxo-6,8-dihydro-5H-1,8-naphthyridin-4-yl)oxy]-2-(trifluoromethyl)phenyl]urea] | ++ (50% ≤ cytotoxicity < 85%) | ++ (50% ≤ cytotoxicity < 85%) | 1000 to 5000 nM | 1000 to 5000 nM | 1000 to 5000 nM | ++ (50% ≤ cytotoxicity < 85%) | 1000 to 5000 nM | ++ (50% ≤ cytotoxicity < 85%) | 1 to 10 nM | +++ (cytotoxicity ≥ 85%) | 100 to 500 nM | ++ (80% > angiogenesis inhibition ≥ 50%) | –
CSc1cc(Oc2ccnc3c2CCC(=O)N3)ccc1NC(=O)Nc1cc(C(C)(C)C)nn1-c1cccc(CN2CCOCC2)c1 [Compound 047, 1-[5-tert-butyl-2-[3-(morpholinomethyl)phenyl]pyrazol-3-yl]-3-[2-methylsulfanyl-4-[(7-oxo-6,8-dihydro-5H-1,8-naphthyridin-4-yl)oxy]phenyl]urea] | ++ (50% ≤ cytotoxicity < 85%) | ++ (50% ≤ cytotoxicity < 85%) | 5000 to 10000 nM | 1000 to 5000 nM | < 1000 nM | +++ (cytotoxicity ≥ 85%) | 1000 to 5000 nM | ++ (50% ≤ cytotoxicity < 85%) | 1 to 10 nM | +++ (cytotoxicity ≥ 85%) | < 100 nM | +++ (angiogenesis inhibition ≥ 80%) | –
CC(C)(C)c1cc(NC(=O)Nc2ccc(Oc3ccnc4c3OCC(=O)N4)cc2C(F)(F)F)n(-c2ccc(CN3CCOCC3)cc2)n1 [Compound 043, 1-[5-tert-butyl-2-[4-(morpholinomethyl)phenyl]pyrazol-3-yl]-3-[4-[(3-oxo-4H-pyrido[3,2-b][1,4]oxazin-8-yl)oxy]-2-(trifluoromethyl)phenyl]urea] | + (20 % ≤ cytotoxicity < 50%) | + (20 % ≤ cytotoxicity < 50%) | ≥ 10000 nM | ≥ 10000 nM | 1000 to 5000 nM | +++ (cytotoxicity ≥ 85%) | 5000 to 10000 nM | ++ (50% ≤ cytotoxicity < 85%) | 10 to 100 nM | ++ (50% ≤ cytotoxicity < 85%) | 100 to 500 nM | +++ (angiogenesis inhibition ≥ 80%) | –
CSc1cc(Oc2ccnc3c2OCC(=O)N3)ccc1NC(=O)Nc1cc(C(C)(C)C)nn1-c1cccc(CN2CCOCC2)c1 [Compound 035, 1-[5-tert-butyl-2-[3-(morpholinomethyl)phenyl]pyrazol-3-yl]-3-[2-methylsulfanyl-4-[(3-oxo-4H-pyrido[3,2-b][1,4]oxazin-8-yl)oxy]phenyl]urea] | ++ (50% ≤ cytotoxicity < 85%) | ++ (50% ≤ cytotoxicity < 85%) | 1000 to 5000 nM | 5000 to 10000 nM | 1000 to 5000 nM | +++ (cytotoxicity ≥ 85%) | 1000 to 5000 nM | +++ (cytotoxicity ≥ 85%) | 1 to 10 nM | +++ (cytotoxicity ≥ 85%) | 100 to 500 nM | +++ (angiogenesis inhibition ≥ 80%) | –
